Assay results: ChEMBL document CHEMBL6074683, “Design, synthesis and investigation of biological activity and mechanism of fluoroaryl-substituted derivatives at the FL118 position 7” (Eur J Med Chem, 2025)

How the values were obtained:
HepG2 = assay: Cytotoxicity against human HepG2 cells incubated for 72 hrs by MTT assay; assay type: functional, cell-based; details: HepG2, 72 h
A549 = assay: Cytotoxicity against human A549 cells incubated for 72 hrs by MTT assay; assay type: functional, cell-based; details: A549, 72 h
HeLa = assay: Cytotoxicity against human HeLa cells incubated for 72 hrs by MTT assay; assay type: functional, cell-based
HCT-116 = assay: Cytotoxicity against human HCT-116 cells incubated for 72 hrs by MTT assay; assay type: functional, cell-based; details: HCT-116, 72 h
[1] = Apparent permeability across apical to basolateral side in human Caco-2 cells measured upto 120 mins by LC-MS/MS method; assay type: ADME, cell-based
[2] = Efflux ratio of apparent permeability across basolateral to apical over apical to basolateral side in human Caco-2 cells; assay type: ADME, cell-based

| Structure (SMILES) | IC50 (HepG2) [µM] | IC50 (A549) [µM] | IC50 (HeLa) [µM] | IC50 (HCT-116) [µM] | Papp A→B at 2 h [1] [×10⁻⁶ cm/s] | efflux ratio [2] |
| --- | --- | --- | --- | --- | --- | --- |
| CC[C@@]1(O)C(=O)OCc2c1cc1n(c2=O)Cc2c-1nc1cc3c(cc1c2-c1cccc(OC(F)(F)F)c1)OCO3 | 0.0168 | 0.0264 | 0.0128 | 0.0146 |  |  |
| CC[C@@]1(O)C(=O)OCc2c1cc1n(c2=O)Cc2c-1nc1cc3c(cc1c2-c1ccc(F)cc1)OCO3 | 0.0463 | 0.0198 | 0.0111 | 0.0327 |  |  |
| CC[C@@]1(O)C(=O)OCc2c1cc1n(c2=O)Cc2c-1nc1cc3c(cc1c2-c1cc(F)cc(OC)c1)OCO3 | 0.0485 | 0.0155 | 0.124 | 0.0669 |  |  |
| CC[C@@]1(O)C(=O)OCc2c1cc1n(c2=O)Cc2c-1nc1cc3c(cc1c2-c1cccc(C(F)(F)F)c1)OCO3 | 0.035 | 0.0829 | 0.0202 | 0.0736 |  |  |
| CC[C@@]1(O)C(=O)OCc2c1cc1n(c2=O)Cc2cc3cc4c(cc3nc2-1)OCO4 | 0.0685 | 0.0818 | 0.0347 | 0.0665 | 6.97 | 1.2 |
| CCOc1ccc(-c2c3c(nc4cc5c(cc24)OCO5)-c2cc4c(c(=O)n2C3)COC(=O)[C@]4(O)CC)cc1F | 0.206 | 0.352 | 0.0422 | 0.399 |  |  |
| CC[C@@]1(O)C(=O)OCc2c1cc1n(c2=O)Cc2c-1nc1cc3c(cc1c2-c1ccc(OC)c(F)c1)OCO3 | 0.172 | 0.0702 | 0.0243 | 0.0432 |  |  |
| CC[C@@]1(O)C(=O)OCc2c1cc1n(c2=O)Cc2c-1nc1cc3c(cc1c2-c1cccc(F)c1)OCO3 | 0.155 | 0.04 | 0.0347 | 0.15 |  |  |
